Data reported in patent publication US20070179060A1, “6-(Poly-substituted aryl)-4-aminopicolinates and their use as herbicides” (priority 2006, published 2007).
Values belong to the compound of their own block, whether it stands above or below them.

Legend:
Cyperus difformis = test: Herbicidal activity in transplanted paddy rice; type: in vivo; settings: Cyperus difformis, 504 h, paddy water application, after 3 weeks, read-out: % Control CYPDI; for pest or weed control at 17.5 g/ha: 17.5 g ai/ha; for pest or weed control at 70 g/ha: 70 g ai/ha
Method in brief: (§1)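 Rice seedlings transplanted at second to third leaf stage and weeds from seed were grown in flooded mud pots in a greenhouse (~29/26 °C, 14 h photoperiod). At second or third true leaf stage, acetone stock solutions were injected into the paddy water at the high rate and ½× to 1/16× dilutions. Solvent-blank controls.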

Echinochloa crus-galli = test: Herbicidal activity in transplanted paddy rice; type: in vivo; settings: Echinochloa crus-galli, 504 h, paddy water application, after 3 weeks, read-out: % Control ECHCG; for pest or weed control at 17.5 g/ha: 17.5 g ai/ha; for pest or weed control at 70 g/ha: 70 g ai/ha
Method in brief: as §1

Monochoria vaginalis = test: Herbicidal activity in transplanted paddy rice; type: in vivo; settings: Pontederia vaginalis, 504 h, paddy water application, after 3 weeks, read-out: % Control MOOVA; for pest or weed control at 17.5 g/ha: 17.5 g ai/ha; for pest or weed control at 70 g/ha: 70 g ai/ha
Method in brief: as §1

Scirpus juncoides = test: Herbicidal activity in transplanted paddy rice; type: in vivo; settings: Schoenoplectiella juncoides, 504 h, paddy water application, after 3 weeks, read-out: % Control SCPJU; for pest or weed control at 17.5 g/ha: 17.5 g ai/ha; for pest or weed control at 70 g/ha: 70 g ai/ha
Method in brief: as §1

[1] = system: rice (Orysa sativa var. Japonica); test: Herbicidal activity in transplanted paddy rice; type: in vivo; settings: Oryza sativa, 504 h, transplant rice (crop), paddy water application, after 3 weeks; for pest or weed control at 17.5 g/ha: 17.5 g ai/ha; for pest or weed control at 70 g/ha: 70 g ai/ha
Method in brief: as §1

[2] = system: Hordeum vulgare (winter barley); test: Postemergence herbicidal activity of mixtures in cereal crops; type: in vivo; settings: after 3 weeks
Description: (§2) Seeds of the desired test plant species were planted and reared as described in “Evaluation of Postemergence Herbicidal Safening in Cereal Crops” (section 37).
(§3) Treatments consisted of compound (as listed in Tables 6 and 7), fluroxypyr methylheptyl ester (MHE), and clopyralid monoethanolamine (MEA) salt alone and in combination. Weighed amounts were placed in 25 mL glass vials and dissolved in a volume of 97:3 v/v acetone/DMSO to obtain 4.5 mg ai/mL stock solutions. […] The concentrated stock solutions were diluted to 1.5 mg ai/mL with the addition of 2 volumes of an aqueous mixture containing acetone, water, isopropyl alcohol, DMSO, Agri-dex crop oil concentrate, and Triton® X-77 surfactant in a 64.7:26.0:6.7:2.0:0.7:0.01 v/v ratio. A dilution solution was prepared by mixing 1 volume of 97:3 v/v acetone/DMSO and 2 volumes of an aqueous mixture containing acetone, water, isopropyl alcohol, DMSO, Agri-dex crop oil concentrate, and Triton® X-77 surfactant in a 64.7:26.0:6.7:2.0:0.7:0.01 v/v ratio. Compound requirements are based upon a 12 mL application volume at a rate of 187 L/ha. Spray solutions of fluroxypyr MHE, clopyralid MEA, and experimental compound mixtures were prepared by adding the stock solutions to the appropriate amount of dilution solution to form 12 mL spray solution with active ingredients in two- and three-way combinations. Formulated compounds were applied to the plant material with an overhead Mandel track sprayer equipped with a 8002E nozzles calibrated to deliver 187 L/ha over an application area of 0.503 square meters at a spray height of 18 inches (43 cm) above average plant canope. Control plants were sprayed in the same manner with the solvent blank.
(§4) The treated plants and control plants were placed in a greenhouse as described above and watered by sub-irrigation to prevent wash-off of the test compounds. After 3 weeks the condition of the test plants as compared with that of the control plants was determined visually and scored on a scale of 0 to 100 percent where 0 corresponds to no injury and 100 corresponds to complete kill.
(§5) Colby's equation was used to determine the herbicidal effects expected from the mixtures (Colby, S. R. 1967. Calculation of the synergistic and antagonistic response of herbicide combinations. Weeds 15:20-22.).
(§6) The following equation was used to calculate the expected activity of mixtures containing two active ingredients, A and B: Expected=A+B−(A×B/100) • A=observed efficacy of active ingredient A at the same concentration as used in the mixture. • B=observed efficacy of active ingredient B at the same concentration as used in the mixture.
(§7) The following equation was used to calculate the expected activity of mixtures containing three active ingredients, A, B, and C: Expected=A+B+C−(A×B+B×C+A×C)/100+(A×B×C)/10000 • A=observed efficacy of active ingredient A at the same concentration as used in the mixture. • B=observed efficacy of active ingredient B at the same concentration as used in the mixture. • C=observed efficacy of active ingredient C at the same concentration as used in the mixture.

Matricaria chamomilla = test: as above; type: in vivo; settings: after 3 weeks
Description: as §2, §3, §4, §5, §6, §7

[3] = system: Triticum aestivum (spring wheat); test: as above; type: in vivo; settings: after 3 weeks
Description: as §2, §3, §4, §5, §6, §7

[4] = Table 7, applied alone, 35 g ai/ha
[5] = Table 7, applied alone, 70 g ai/ha
[6] = Table 6, applied alone, 35 g ai/ha

melting point: 164 to 165 °C
Compound: COC(=O)c1nc(-c2ccc(Br)c(OC)c2F)cc(N)c1Cl [Compound 27, 4-amino-6-(4-bromo-2-fluoro-3-methoxyphenyl)-3-chloro-pyridine-2-carboxylic acid methyl ester]
pest or weed control at 17.5 g/ha (Cyperus difformis): 100%
pest or weed control at 17.5 g/ha (Echinochloa crus-galli): 45%
pest or weed control at 17.5 g/ha (Monochoria vaginalis): 100%
pest or weed control at 17.5 g/ha (Scirpus juncoides): 99%
pest or weed control at 17.5 g/ha [1]: 0%

Compound: COC(=O)c1nc(-c2ccc(Cl)c(OC)c2F)cc(N)c1Cl [Compound 42, 4-Amino-3-chloro-6-(4-chloro-2-fluoro-3-methoxyphenyl)pyridine-2-carboxylic acid methyl ester]
pest or weed control at 17.5 g/ha (Cyperus difformis): 100%
pest or weed control at 17.5 g/ha (Echinochloa crus-galli): 40%
pest or weed control at 17.5 g/ha (Monochoria vaginalis): 100%
pest or weed control at 17.5 g/ha (Scirpus juncoides): 90%
pest or weed control at 17.5 g/ha [1]: 5%
% Control HORVW Ob [2, 4]: 25%
% Control HORVW Ob [2, 5]: 30%
% Control MATCH Ob (Matricaria chamomilla; [4]): 50%
% Control MATCH Ob (Matricaria chamomilla; [5]): 60%
% Control TRZAS Ob [3, 4]: 30%
% Control TRZAS Ob [3, 5]: 45%

melting point: 168 to 170 °C
Compound: COC(=O)c1nc(-c2ccc(Cl)c(OC)c2Cl)cc(N)c1Cl [Compound 44, 4-Amino-3-chloro-6-(2,4-dichloro-3-methoxyphenyl)pyridine-2-carboxylic acid methyl ester]
pest or weed control at 70 g/ha (Cyperus difformis): 100%
pest or weed control at 70 g/ha (Echinochloa crus-galli): 50%
pest or weed control at 70 g/ha (Monochoria vaginalis): 90%
pest or weed control at 70 g/ha (Scirpus juncoides): 95%
pest or weed control at 70 g/ha [1]: 0%

Compound: COC(=O)c1nc(-c2c(F)cc(Cl)c(OC)c2F)cc(N)c1Cl [Compound 58, 4-Amino-3-chloro-6-(4-chloro-2,6-difluoro-3-methoxyphenyl)pyridine-2-carboxylic acid, methyl ester]
pest or weed control at 17.5 g/ha (Cyperus difformis): 100%
pest or weed control at 17.5 g/ha (Echinochloa crus-galli): 30%
pest or weed control at 17.5 g/ha (Monochoria vaginalis): 100%
pest or weed control at 17.5 g/ha (Scirpus juncoides): 50%
pest or weed control at 17.5 g/ha [1]: 0%
% Control HORVW Ob [2, 6]: 15%
% Control MATCH Ob (Matricaria chamomilla; [6]): 0%
% Control TRZAS Ob [3, 6]: 35%

Compound: COC(=O)c1nc(-c2ccc(F)c(OC)c2F)cc(N)c1Cl [Compound 70, 4-Amino-3-chloro-6-(2,4-difluoro-3-methoxyphenyl)pyridine-2-carboxylic acid, methyl ester]
pest or weed control at 70 g/ha (Cyperus difformis): 95%
pest or weed control at 70 g/ha (Echinochloa crus-galli): 45%
pest or weed control at 70 g/ha (Monochoria vaginalis): 100%
pest or weed control at 70 g/ha (Scirpus juncoides): 95%
pest or weed control at 70 g/ha [1]: 0%

Compound: COC(=O)c1nc(-c2c(F)cc(Br)c(OC)c2F)cc(N)c1Cl [Compound 77, 4-Amino-6-(4-bromo-2,6-difluoro-3-methoxyphenyl)-3-chloropyridine-2-carboxylic acid, methyl ester]
pest or weed control at 35 g/ha (Cyperus difformis; 35 g ai/ha): 100%
pest or weed control at 35 g/ha (Echinochloa crus-galli; 35 g ai/ha): 70%
pest or weed control at 35 g/ha (Monochoria vaginalis; 35 g ai/ha): 100%
pest or weed control at 35 g/ha (Scirpus juncoides; 35 g ai/ha): 99%
pest or weed control at 35 g/ha ([1]; 35 g ai/ha): 0%

Compound: COc1c(Cl)ccc(-c2cc(N)c(Cl)c(C(=O)O)n2)c1F [Compound 100, 4-Amino-3-chloro-6-(4-chloro-2-fluoro-3-methoxyphenyl)pyridine-2-carboxylic acid]
pest or weed control at 17.5 g/ha (Cyperus difformis): 100%
pest or weed control at 17.5 g/ha (Echinochloa crus-galli): 30%
pest or weed control at 17.5 g/ha (Monochoria vaginalis): 100%
pest or weed control at 17.5 g/ha (Scirpus juncoides): 80%
pest or weed control at 17.5 g/ha [1]: 10%

melting point: 179 to 180 °C (dec.)
Compound: COc1c(Cl)ccc(-c2cc(N)c(Cl)c(C(=O)O)n2)c1Cl [Compound 103, 4-Amino-3-chloro-6-(2,4-dichloro-3-methoxyphenyl)pyridine-2-carboxylic acid]
pest or weed control at 70 g/ha (Cyperus difformis): 100%
pest or weed control at 70 g/ha (Echinochloa crus-galli): 40%
pest or weed control at 70 g/ha (Monochoria vaginalis): 100%
pest or weed control at 70 g/ha (Scirpus juncoides): 95%
pest or weed control at 70 g/ha [1]: 10%
